Assay results: patent publication US5482954A, “Signal transduction inhibitor triazole and diazole compounds” (priority 1994, dated 1996)

Key:
[1] = system: production of PGE2 and PGF2a; conditions: Honn, et al.; cited from earlier work
[2] = system: voltage-gated L-type calcium channels in vascular smooth muscle cells; conditions: patch clamp; Merritt, et al.; cited from earlier work
[3] = system: RMCE in endothelial cells; conditions: Merritt, et al.; cited from earlier work
[4] = system: RMCE in neutrophils; conditions: Merritt, et al.; cited from earlier work
[5] = system: RMCE in platelets; conditions: Merritt, et al.; cited from earlier work
[6] = system: signal transduction and tumor growth; test: Biological and biochemical assays, summary; type: cell-based; conditions: summary of all assays
Text: Compound 1 was inhibitory for the biological and biochemical assays.

[7] = system: CHOm5 cells; test: Carbachol-stimulated 45Ca2+ influx; type: cell-based, Chinese hamster; set-up: % Inhibition of 45Ca2+ Influx into CHOm5 Cells: concentration or dose not given beside the values; conditions: Table I; carbachol-stimulated
Method: (§1) Calcium influx was determined using two methods. The first method involved the use of ^45 Ca^2+, while the second method utilized a fluorescent intracellular calcium chelator, Fura-2. The method using Fura-2 is semi-quantitative and is preferred for kinetic analysis and screening whereas the ^45 Ca^2+ method is quantitative.
CHOm5 cells in monolayer culture were washed free of serum-containing media and incubated with either carbachol or the calcium ionophore A23187 (from Molecular Probes, Eugene, Oreg., USA) in the presence of ^45 Ca^2+ and defined buffer (E2 medium with 0.1 mM MgCl2 and 1.0 mM CaCl2). After incubation for 5 min, the radioactive buffer was rapidly and repeatedly washed off with media containing LaCl3, a competitor of calcium efflux. The cell monolayer was solubilized and the calcium uptake was determined by scintillation counting.
Stimulated uptake of radiolabelled calcium was measured as described above. The abbreviations CTL and CC are control and carbachol-stimulated calcium influx values. respectively.

[8] = system: A2058 cells; test: Colony formation (soft agar); type: cell-based, human
Method: Colony formation: Compound 1 was evaluated at three concentrations for inhibition of colony formation in both the A2058 and OVCAR3 cell lines. Colony number was determined in triplicate and compared to the vehicle control run on each 24 well plate to provide a percent. Colonies greater than 60 cells were counted at 100× under phase contrast. […] In a second study, selected compounds were evaluated for their effect on density-independent growth of the A2058 cell line in soft agar. Percent inhibition was determined over triplicate experiments involving three log molar concentrations of the test compound.

[9] = system: CHOm5 cells; test: Carbachol-stimulated arachidonic acid release; type: cell-based, Chinese hamster; conditions: Table K
Text: This example illustrates the effect of selected compounds on the release of arachidonic acid from carbachol-stimulated CHOm5 cells. Carbachol is a muscarinic agonist which in the muscarinic receptor transfected CHO cells stimulates the activation of phospholipase A2, resulting in arachidonic acid release and metabolism. Downstream metabolites of arachidonic acid, prostaglandins and leukotrienes are also second messengers.
The effect of compound 1 on arachidonic acid release from CHOm5 cells was determined by incubating the cells to isotopic equilibrium with labelled arachidonic acid, then washing the cells twice with 1 mL of serum-free media supplemented with 20 mM HEPES and 0.2% bovine serum albumin (fatty acid free) to trap the unincorporated labelled arachidonic acid, and then simultaneously adding carbachol (100 μM) and increasing concentrations of 1. After 15 min, the reaction was stopped by removing the incubation media which was then centrifuged at 10,000×g to eliminate any nonadherent cells.

[10] = system: 5R ras-transfected rat embryo fibroblast cell line; test: Experimental pulmonary metastasis, tumor cells pretreated in vitro; type: in vivo, nude mice; conditions: cells treated overnight, 1-10 μM; 10 d
Method: This example illustrates the effect of selected compounds on the development of experimental pulmonary metastases, when the tumor cells are first incubated with the compound in vitro and subsequently injected into the tail vein of nude mice. In this example, both the 5R ras-transfected rat embryo fibroblast cell line and the HT-29 human colon cancer cell line were evaluated.
The 5R ras-transfected rat embryo fibroblast cell line forms confluent pulmonary metastases within 2-3 weeks after inoculation. For the experimental metastasis assay, 5R cells were treated in culture overnight with the test compounds (1-10 μM). After culture, the cells were harvested, washed and injected into the tail vein of six-week old nude mice. After 10 d, the mice were humanely sacrificed and the lungs were removed and fixed in Bouin's solution. The visible pulmonary metastases were counted.

[11] = system: A2058 cells; test: Ca2+ influx (receptor-operated); type: cell-based, human
Method: as §1
Additionally, CHOm5 cells and A2058-1F5 human melanoma cells adherent to glass coverslips, which had been precoated with collagen or poly-L lysine to promote adhesion, were loaded with the fluorescent intracellular calcium chelator, fura-2AM. This chelator penetrates cells where it is hydrolyzed to fura-2 which remains trapped in the cells. Excess fura-2AM is washed off the cells. Cells are studied in serum-free E2 media, containing known amounts of calcium and magnesium. The cells are subjected to treatment with carbachol (10 μM) with or without compounds 1 and 2, and with appropriate vehicle controls (DMSO or PEG-400) in a perifusion apparatus. This ligand is known to stimulate intracellular release of calcium and influx of extracellular calcium. Emitted light is measured at 510 nm after excitation at 340 and 380 nm, with the ratio of fluorescence of fura-2 being directly correlated with intracellular calcium concentrations.
Stimulated uptake of radiolabelled calcium was measured as described above. […]

[12] = system: A2058 cells; test: Proliferation of A2058 cells (monolayer growth, crystal violet); type: cell-based, human; conditions: Homo sapiens, A2058; Table H; 10 μM, 96 hr; read-out: GROWTH (% OF CONTROL)
Method: For the clonogenic assay, aliquots of 50,000 cells per well (24 well plates) were grown under standard tissue culture conditions in the presence of increasing doses or test compound (0-10 μg/mL) or vehicle control. After 96 hr, the cells were gently washed with PBS, fixed, and stained with 0.5% crystal violet nuclear stain in 20% methanol. Excess stain was removed with tap water and bound stain was eluted with an equal volume solution of 01N sodium citrate (pH 4.2) and absolute ethanol. Optical density (O.D.) of eluted crystal violet stain was determined at 540 nm. The results of dose-dependent inhibition of tumor cell proliferation by compound 1 are shown in FIG. 5, in which the data are expressed as percent of untreated control cell proliferation for each cell type. The degree of inhibition varied with the cell type and was maximal (76%) for the A2058 cell line.
A2058 human melanoma cells were used to test the effect of compounds 1 and 3-25 on cellular proliferation. The cells were cultured in the presence of the test compounds (10 μM) for 96 hr. fixed and stained with crystal violet as described above. Growth inhibition was determined as a percent of control growth (using either DMSO or PEG-400 as the vehicle) for each compound. Each experiment was run a minimum of three times and the average of the results for each compound is provided in Table H and in FIGS. 20A and 20B.

[13] = system: A2058 human melanoma cells; test: AMF-stimulated cell motility; type: cell-based; conditions: PT, 0.5 μg/ml for 2 hr
Method: (§2) The cell motility assay has been described. See, Stracke et al., Biochem. Biophys. Res. Comm., 146:339-345 (1987). Cells from the A2058 human melanoma line which was maintained in subconfluent culture were harvested with trypsin-EDTA, and were allowed to recover for 1 hr at room temperature. Cells from the 5R H-ras transformed (diploid) rat embryo fibroblast line were harvested with 2 mM EDTA in PBS without divalent cations. Cells were resuspended in serum-free media containing 0.1% BSA. This DMEM/0.1% BSA was used as the control for all subsequent assays. The assays were performed in triplicate using a 48-well chemotaxis chamber with 8μ Nucleopore, type IV collagen-coated filters. The chambers were incubated at 37° C. for 4 hr, stained and placed onto glass slides with the original cell side up so that the cell pellet could be wiped from the surface. Cells that had migrated through the pores were trapped between glass and membrane and could be quantitated by laser densitometry.
(§3) Compound 1 was preincubated with the cells for various periods of time, added at the start of the assay, or added later. Additionally, compound 1 remained present during the motility assay. The cells were assayed for their motile response to AMF. AMF stimulates random and directed locomotion of 5R ras-transfected rat embryo fibroblasts and A2058 human melanoma cells. […] Cell viability determined by trypan blue exclusion averaged greater than 96%. Cells exposed to various concentrations of compound 1 were tested for their response to AMF vs. control. Percent stimulated motility (in densitometer units) is defined as: […]
(§4) (AMF stimulated-control)Compound 1 /(AMF stimulated-control)untreated

[14] = system: 5R ras-transfected rat embryo fibroblasts; test: AMF-stimulated cell motility; type: cell-based; conditions: PT, 0.5 μg/ml for 2 hr
Method: as §2, §3, §4

Which “inhibition of phorbol ester-stimulated production of PGE2 and PGF2a” value [1] does the source give for `COc1ccc2c(c1)c(CC(=O)O)c(C)n2C(=O)c1ccc(Cl)cc1` [indomethacin] here?
The value was “selectively inhibited”.

Which results are given for `COc1ccc(CCCOC(Cn2ccnc2)c2ccc(OC)cc2)cc1` (stereo not drawn) [Compound 2]?
block of voltage-gated L-type calcium channels [2]: blocks; inhibition of RMCE [3]: inhibits RMCE; inhibition of RMCE [4]: inhibits RMCE; inhibition of RMCE [5]: inhibits RMCE

For `NC(=O)c1nnn(Cc2ccc(C(=O)c3ccccc3)cc2)c1N` [Compound 8], which “inhibition in the biological and biochemical assays” value [6] is on record?
Its value is “did not inhibit any of the test assays”.

What about the “% Inhibition of 45Ca2+ Influx into CHOm5 Cells” value [7] of the same compound?
The value was 0%.

And the “COLONY FORMATION (% OF CONTROL)” value ([8]; Table H, soft agar)?
Its value is 93.4 ± 3 % OF CONTROL.

And the “Colony Formation (% of Control)” value ([8]; Table K)?
The value was 93.4 ± 3 % of Control.

And the “Arachidonic Acid Release (% of Control)” value [9]?
The value was 100 ± 15 % of Control.

And the “inhibition of pulmonary colonization” value [10]?
The value was 14%.

What about the “inhibition of stimulated changes in intracellular calcium” value [11] of the same compound?
Its value is “failed to inhibit”.

What about the activity at 10 µM [12] of the same compound?
Its activity at 10 µM is 92.7 ± 9%.

For pertussis toxin [reference compound], which “inhibition of AMF-stimulated motility by pertussis toxin” value [13] is on record?
The value was “markedly inhibited”.

And the “inhibition of AMF-stimulated motility by pertussis toxin” value [14]?
The value was “markedly inhibited”.
